Laboratory results: patent US10828265B2, “Formulations of propranolol and analogs as an amorphous melt or ionic liquid for transdermal drug delivery” (The Regents of the University of California, priority 2016, dated 2020)
Where a name gives a salt, the structure may show the parent alone. Read-outs that look alike come from different tables or passages of the source.

How the values were obtained:
[1] = test system: Mat Tek Epiderm FT human skin equivalent tissues; details: for Dose-normalized skin irritation potential, fold lower than 0.1 M PFB EtOH formulation: interleukin-1α release divided by applied dose, neat melt, FIG. 8A; for skin irritation potential normalized to delivered dose in acceptor, fold lower than 0.1 M PFB EtOH formulation: interleukin-1α release divided by delivered dose in acceptor compartment, FIG. 8B
Procedure: Evaluation was conducted using human skin equivalent tissues (Epiderm™) with a human interleukin-1α ELISA kit. Interleukin-1α release has been previously established as an indicator for skin irritation and affords evaluating irritation without requiring removal of the test formulation from skin tissues, a potentially damaging process to the tissues when studying viscous formulations. 0.1 M and 0.2 M PFB EtOH formulations, positive control (5% sodium dodecyl sulfate (SDS) in PBS), negative control (PBS) and EtOH solvent control were also evaluated.
Skin irritation was assessed by measuring interleukin-1α release from Mat Tek Epiderm FT™ human skin equivalent tissues (MatTek Corporation, Ashland, Mass.). Experiments were performed according to the manufacturer's recommended protocol. Briefly, new media was added immediately before application of formulations. Formulations were applied to the surface of the tissues for 4 hours. After 4 hours, 200 μL of media was collected for interleukin-la analysis. Interleukin-la release was quantified using a Human Interleukin-la ELISA Kit (Pierce Biotechnology Inc., Rockford, Ill.) according to the manufacturer's recommended Protocol. ThermoFisher Scientific. Instructions of Human IL-1α ELISA Kit. Retrieved from https://www.thermofisher.com/order/catalog/product/EH2IL1A (2014). Absorbance of blank (0 pg/mL Interleukin-1α) was subtracted from absorbance of each sample.

[2] = Partition coefficient n-octanol/water (log Po/w); format: physicochemical
Procedure: Lipophilicity of propranolol melts or ionic liquids, measured as partition coefficient n-octanol/water (log Po/w), varied depending on the carbon chain length of the counter species (FIG. 6C). The log Po/w of propranolol melts or ionic liquids ranged from 0.76 to 1.76, and were between −0.41 of PRL:Cl and 3.12 of PFB.
A 250 mL volume of n-octanol was shaken with 25 mL of ddH2O and left overnight to obtain n-octanol saturated with water. A 250 mL volume of ddH2O was shaken with 25 mL of n-octanol and left overnight to obtain water saturated with n-octanol. Ten milliliters of saturated n-octanol was added to each 3H-labeled propranolol melt or ionic liquid (6-10 mg) in a 20-mL scintillation vial followed by stirring until the melt or ionic liquid was dissolved completely. 10 mL saturated water was shaken with 10 mL of the 3H-labeled propranolol melt or ionic liquid solution in octanol for 1 minute, followed by 2 minutes of gentle centrifugation (1000 rpm, 74×g, Allegra X-12R centrifuge, FX6100 rotor, Beckman Coulter, Brea, Calif.) to obtain clean separation of the two layers. […] The partition coefficient n-octanol/water was calculated as the logarithm of the concentration of propranolol in octanol divided by the concentration of propranolol in water.

[3] = neat melt, SD of three measurements in parentheses
Procedure: Standard deviations of three measurements are provided in parentheses.
Viscosity was measured using 1-mL samples with a LC-ARES Test Station (TA Instruments, New Castle, Del.) and a cone (diameter: 25 mm; angle: 0.1 rad). The cone rotation rate was 10 s^−1 and viscosity was measured three times per sample at 25° C. and 37° C. Differential scanning calorimetry (DSC) was performed with a Q2000 DSC with 50 position autosampler (TA Instruments, New Castle, Del.). Sample size was 9-10 mg, and was weighed in an aluminum hermetic pan. Samples were heated from room temperature to 120° C. under N2 atmosphere followed by cooling to […] and subsequent heating back to 120° C. with a ramp rate of 10° C. per minute.

[4] = Molar conductivity (neat, in water, in n-octanol); format: physicochemical; details: for molar conductivity in n-octanol: 1.32 mM PRL:C8, 1.24 mM PRL:C5, mean±SD; for molar conductivity in water in comparison to sodium chloride: 25° C. and 37° C., FIGS. 9A and 9B
[5] = porcine skin, 24 hours, 37° C.
Procedure: Franz diffusion cells were used to assess the skin transport of propranolol melts or ionic liquids using a previously established protocol described in Karande, P., et al., Discovery of transdermal penetration enhancers by high-throughput screening. […] Briefly, the acceptor chamber was filled with degas sed PBS or 4% bovine serum albumin in PBS and a small stir bar was added. Thawed porcine skin was clamped in place between the acceptor and donor chambers with the SC facing up. Care was taken to ensure no air bubbles resided in the acceptor chamber, and skin was stretched to minimize the presence of furrows. PFB solution in either IPM or EtOH was spiked with the 3H-labeled propranolol free base solution to a final concentration of 10 μCi/mL. Alternatively, 3H-labeled propranolol melts or ionic liquids were used as donor formulations. […] Samples from each tissue layer and acceptor solution were dissolved in Solvable (Perkin Elmer, Waltham, Mass.) overnight, and the amount of propranolol was measured using a scintillation counter and standard solution of radiolabeled donors. […] Furthermore, permeability (Kp) was calculated using the following equation, where Jss is the steady-state flux calculated as the slope of the linear portion of the plot of the cumulative amount permeated per unit area versus time, and C is propranolol concentration in donor. […]

[6] = Solubility in organic and aqueous solvents; format: physicochemical

SMILES | partition coefficient n-octanol/water (log Po/w) [2] | Propranolol Melt Viscosity ([3]; 25° C.) | Propranolol Melt Viscosity ([3]; 37° C.) | Dose-normalized skin irritation potential, fold lower than 0.1 M PFB EtOH formulation ([1]; 4 hours) [fold] | skin irritation potential normalized to delivered dose in acceptor, fold lower than 0.1 M PFB EtOH formulation [1] [fold] | molar conductivity in n-octanol ([4]; 25° C.) [S cm^2/mol] | molar conductivity in n-octanol ([4]; 37° C.) [S cm^2/mol] | molar conductivity in water in comparison to sodium chloride ([4]; water) | also measured
CCCCCCCCCCCCOS(=O)(=O)[O-].[Na+] [5% SDS in PBS, Sodium dodecyl sulfate, reference compound] |  |  |  |  |  |  |  |  | Interleukin-1α release (irritation) ([1]; 4 hours, FIG. 14A): highest amount of irritation
CC(C)NCC(O)COc1cccc2ccccc12 (stereo not shown) [PFB, propranolol free base] | 3.12 |  |  |  |  |  |  |  | 
CC(C)NCC(O)COc1cccc2ccccc12.CCCCCOC(=O)CC(C(=O)OCCCCC)S(=O)(=O)O (stereo not shown) [PRL:C5, propranolol diamyl sulfosuccinate] |  | 59.5 (1.6) Pa s | 14.7 (0.2) Pa s | 1.7 | 3.7 | 0.35±0.01 | 0.40±0.01 | much lower molar conductivity | 
CC(C)NCC(O)COc1cccc2ccccc12.CCCCCCOC(=O)CC(C(=O)OCCCCCC)S(=O)(=O)O (stereo not shown) [PRL:C6, propranolol dihexyl sulfosuccinate] |  | 1889.4 (325.2) Pa s | 180.9 (10.8) Pa s |  |  |  |  |  | 
CC(C)NCC(O)COc1cccc2ccccc12.CCCCC(CC)COC(=O)CC(C(=O)OCC(CC)CCCC)S(=O)(=O)O (stereo not shown) [PRL:C8, propranolol dioctyl sulfosuccinate] |  | 70.4 (0.9) Pa s | 16.9 (0.1) Pa s | 11 | 40 | 0.49±0.01 | 0.51±0.01 | much lower molar conductivity | difference in skin irritation potential between PRL:C8 and PRL:C5 ([1]; dose-normalized, FIGS. 8A and 8B): ~10 fold; molar conductivity in water, fold lower than PRL:C5 ([4]; water, 37° C., concentrations >1 mM): ~10 fold; amount of propranolol delivered into skin layers and acceptor [5]: delivery enhancement into each layer; skin permeability (flux normalized by applied dose) [5]: highest permeability among analog melts or ionic liquids
CC(C)NCC(O)COc1cccc2ccccc12 (stereo not shown) [PRL:Cl, propranolol hydrochloride] | −0.41 |  |  |  |  |  |  |  | solubility ([6]; methanol, organic solvent or mixture, read-out: solubility in methanol): 510 mM; solubility ([6]; water, read-out: solubility in water): 170 mM
